What was measured:
[1] = tested on: H1975 tumor xenograft; test: Inhibition of tumor growth in H1975 tumor xenograft model; assay type: in vivo, BALB/c female nude mice; conditions: QD x 14
Experimental: H1975 cells were implanted in BALB/c female nude mice and grown as tumor xenografts. When tumors achieved 120-200 mm^3, mice were assigned into treatment and control groups using randomized block design based upon their tumor volumes. Each group contained 6 tumor-bearing mice. Tumors were measured twice weekly in two dimensions using a caliper, and the tumor volume was calculated from two-dimensional measurements using the equation V=0.5×a×b^2 where a and b are the long and short diameters of the tumor, respectively. Relative tumor volume (RTV) was defined as TVt/TVi, the ratio of the volume on a given day (TVt) and the volume at the start of treatment (TVi). Relative tumor growth rate (T/C) was defined as RTVT/RTVC, the ratio of relative tumor volume of treatment group (RTVT) and relative tumor volume of control group (RTVC) on a given day. Inhibition of tumor growth in a H1975 tumor xenograft model by some compounds is shown below in Table 6 and Table 7.

[2] = biological target: FGFR1 (Homo sapiens (Human), UniProt P11362); test: Z'-LYTE kinase inhibition assay, FGFR1; assay type: biochemical; conditions: compound at 0.041 μM
Sequence of FGFR1 (P11362 22-822): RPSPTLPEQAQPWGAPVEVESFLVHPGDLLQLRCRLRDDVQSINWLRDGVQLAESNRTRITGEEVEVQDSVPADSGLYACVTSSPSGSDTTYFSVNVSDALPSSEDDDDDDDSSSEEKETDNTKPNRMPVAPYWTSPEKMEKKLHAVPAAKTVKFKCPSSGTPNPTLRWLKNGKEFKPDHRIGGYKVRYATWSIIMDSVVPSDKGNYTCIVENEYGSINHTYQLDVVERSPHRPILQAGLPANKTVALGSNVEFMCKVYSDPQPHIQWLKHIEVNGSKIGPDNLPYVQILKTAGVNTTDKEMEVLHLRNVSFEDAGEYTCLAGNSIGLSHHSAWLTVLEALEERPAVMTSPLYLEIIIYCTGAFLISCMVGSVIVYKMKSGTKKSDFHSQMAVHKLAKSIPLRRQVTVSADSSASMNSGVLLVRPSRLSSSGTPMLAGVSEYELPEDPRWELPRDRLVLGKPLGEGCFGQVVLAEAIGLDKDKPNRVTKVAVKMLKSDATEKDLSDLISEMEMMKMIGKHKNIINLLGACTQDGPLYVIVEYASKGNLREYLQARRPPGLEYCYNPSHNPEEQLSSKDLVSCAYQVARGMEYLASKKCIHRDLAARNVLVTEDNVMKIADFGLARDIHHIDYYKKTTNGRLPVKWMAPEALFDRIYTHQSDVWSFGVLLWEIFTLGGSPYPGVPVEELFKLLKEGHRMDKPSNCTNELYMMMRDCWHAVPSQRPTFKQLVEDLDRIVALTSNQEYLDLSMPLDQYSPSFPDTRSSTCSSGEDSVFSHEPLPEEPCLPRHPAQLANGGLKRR
Experimental: Inhibitory activities of compounds against BTK, EGFR and EGFR mutants (EGFR L858R, EGFR T790M, EGFR L858R/T790M), FGFR1, FGFR2, JAK2, JAK3 and KDR were measured by Invitrogen using Z′-LYTE® Method as briefly described in the following.
Test Compounds are screened in 1% DMSO (final) in the well. For 10 point titrations, 3-fold serial dilutions are conducted from the starting concentration. All ATP Solutions are diluted to a 4× working concentration in Kinase Buffer (50 mM HEPES pH 7.5, 0.01% BRIJ-35, 10 mM MgCl2, 1 mM EGTA). Peptide/Kinase Mixtures are diluted to a 2× working concentration in the appropriate Kinase Buffers as described below.
(v) Peptide/Kinase Mixtures for measurement of FGFR1:
The 2×FGFR1/Tyr 04 mixture is prepared in 50 mM HEPES pH 7.5, 0.01% BRIJ-35, 10 mM MgCl2, 4 mM MnCl2, 1 mM EGTA, 2 mM DTT. The final 10 μL Kinase Reaction consists of 0.41-3.5 ng FGFR1 and 2 μM Tyr 04 in 50 mM HEPES pH 7.5, 0.01% BRIJ-35, 10 mM MgCl2, 2 mM MnC12, 1 mM EGTA, 1 mM DTT. After the 1 hour Kinase Reaction incubation, 5 μL of a 1:64 dilution of Development Reagent B is added.
Reaction starts by 30-second shaking of mixture consisting of 2.5 μL 4× test compound, 5 μL 2× kinase reaction mixture and 2.5 μL 4×ATP Solution on Bar-coded Corning, low volume NBS, black 384-well plate (Corning Cat. #3676). […] Finally fluorescence is read by plate reader. […]

[3] = Table 6, 30 mg/kg, Intraperitoneal injection

Compound	T/C [1, 3] [%]	T/C ([1]; Table 7, 60 mg/kg, Oral) [%]	also measured
C=CC(=O)Nc1cccc(-c2cccc3cnc(Nc4ccc(N5CCN(C)CC5)cc4)nc23)c1 [Example C021, N-(3-(2-((4-(4-methylpiperazin-1-yl)phenyl)amino)quinazolin-8-yl)phenyl)acrylamide]			T/C ([1]; Table 6, 60 mg/kg, Oral): 30.5%
C=CC(=O)Nc1cccc(-c2cccc3cnc(Nc4ccc(N5CCN(C(C)=O)CC5)cc4)nc23)c1 [Example C032, N-(3-(2-((4-(4-acetylpiperazin-1-yl)phenyl)amino)quinazolin-8-yl)phenyl)acrylamide]			inhibition at 0.041 µM [2]: > 50%
C=CC(=O)Nc1cccc(-c2cccc3cnc(Nc4ccc(N5CCN(C)CC5)nc4)nc23)c1 [Example C041, N-(3-(2-((6-(4-methylpiperazin-1-yl)pyridin-3-yl)amino)quinazolin-8-yl)phenyl)acrylamide]	48.7		
C=CC(=O)Nc1cccc(-c2cccc3cnc(Nc4ccc(N5CCN(CCO)CC5)cc4)nc23)c1 [Example C059, N-(3-(2-((4-(4-(2-hydroxyethyl)piperazin-1-yl)phenyl)amino)quinazolin-8-yl)phenyl)acrylamide]			T/C ([1]; Table 6, 60 mg/kg, Oral): 35.3%
C=CC(=O)Nc1cccc(-c2cccc3cnc(Nc4ccc(NC5CN(CCF)C5)cc4)nc23)c1 [Example C103, N-(3-(2-((4-((1-(2-fluoroethyl)azetidin-3-yl)amino)phenyl)amino)quinazolin-8-yl)phenyl)acrylamide]	35.8		
C=CC(=O)Nc1cccc(-c2cccc3cnc(Nc4ccc(OCCOC)cc4)nc23)c1 [Example C107, N-(3-(2-((4-(2-methoxyethoxy)phenyl)amino)quinazolin-8-yl)phenyl)acrylamide]	63.6		
C=CC(=O)Nc1cccc(-c2cccc3cnc(Nc4ccc(N5CCN(CCO)CC5)cc4F)nc23)c1 [Example C147, N-(3-(2-((2-fluoro-4-(4-(2-hydroxyethyl)piperazin-1-yl)phenyl)amino)quinazolin-8-yl)phenyl)acrylamide]		55.7	
C=CC(=O)Nc1cccc(-c2cccc3cnc(Nc4ccc(N5CCN(CCO)CC5)c(F)c4F)nc23)c1 [Example C151, N-(3-(2-((2,3-difluoro-4-(4-(2-hydroxyethyl)piperazin-1-yl)phenyl)amino)quinazolin-8-yl)phenyl)acrylamide]		28.6	
C=CC(=O)Nc1cccc(-c2cccc3cnc(Nc4ccc(N5CCN(C)CC5)c(F)c4F)nc23)c1 [Example C156, N-(3-(2-((2,3-difluoro-4-(4-methylpiperazin-1-yl)phenyl)amino)quinazolin-8-yl)phenyl)acrylamide]		36.8	
